Measurements: PMC10064984, “Anti-cyclooxygenase, anti-glycation, and anti-skin aging effect of Dendrobium officinale flowers’ aqueous extract and its phytochemical validation in aging” (Frontiers in Immunology, 2023)
“And” between values parts separate entries of the source, which are not always exact repeats. Equal values may be shown once.

Columns and labels:
[1] = Fluorescent AGEs formation in a BSA-fructose/glucose system; assay type: biochemical; settings: for inhibition of fluorescent AGEs formation (BSA-抗糖化), single replicate: individual replicate; for inhibition of fluorescent AGEs formation (BSA-抗糖化), 平均 (mean): mean of 3 replicates
How it was run: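 BSA glycated in vitro with D-glucose and D-fructose while test samples, dissolved in DMSO:water (1:4), were present. Percent inhibition of fluorescent AGE formation calculated from fluorescence corrected for sample-only and BSA-free blanks; triplicate.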

[2] = Online UPLC-PDA-MS-ABTS·+ scavenging (postcolumn derivatisation); settings: within DOF extract
Procedure: Online identification of antioxidant components of DOF extract was performed using a UPLC system (Milford, MA, USA) consisting of a Waters photodiode array detector and a Waters postcolumn derivatisation system supplying fresh ABTS solution (UPLC-PDA-QDa-ABTS). […] The detection wavelengths were set at 280 and 734 nm, and the injection volume of the sample was 10 μl.
To detect radical scavengers, the UPLC system was coupled with a Waters pump, which supplied freshly prepared ABTS·+ solution into a reaction coil (15 m, 0.25 mm ID) with a flow rate of 0.2 ml/min at 37°C. Negative peaks were recorded based on a decrease of absorbance at 729 nm after the reaction of individual compounds with the ABTS·+ radical. For preliminary identification of compounds, a Waters Acquity QDa mass detector in negative ionisation mode was connected in series to PDA with the following parameters: electrospray ion source; cone voltage, 15 V; atomiser, N2; and scanning range, 100–800 m/z.

[3] = molecular target: T1, COX-2 (Homo sapiens, UniProt P35354); assay: Anti-COX-2 assay (COX-2 Inhibitor Screening Kit); assay type: biochemical
T1 construct: purchased Beyotime S0168
T1 sequence (P35354 18-604): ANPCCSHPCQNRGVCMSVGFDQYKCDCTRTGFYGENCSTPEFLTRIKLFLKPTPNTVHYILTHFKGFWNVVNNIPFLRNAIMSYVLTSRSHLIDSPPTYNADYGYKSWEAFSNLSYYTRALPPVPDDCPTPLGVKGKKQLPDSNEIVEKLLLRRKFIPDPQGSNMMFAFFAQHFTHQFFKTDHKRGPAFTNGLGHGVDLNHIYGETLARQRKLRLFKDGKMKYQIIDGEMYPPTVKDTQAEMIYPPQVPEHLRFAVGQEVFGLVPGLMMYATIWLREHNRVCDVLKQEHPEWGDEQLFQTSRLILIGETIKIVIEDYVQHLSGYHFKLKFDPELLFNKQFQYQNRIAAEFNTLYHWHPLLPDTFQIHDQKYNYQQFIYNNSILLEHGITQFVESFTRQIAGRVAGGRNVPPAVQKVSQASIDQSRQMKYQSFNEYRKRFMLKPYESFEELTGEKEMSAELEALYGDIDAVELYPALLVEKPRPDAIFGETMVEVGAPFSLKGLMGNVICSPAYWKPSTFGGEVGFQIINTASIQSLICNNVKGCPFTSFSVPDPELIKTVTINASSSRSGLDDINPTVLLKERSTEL

[4] = ABTS·+ decolourisation capacity; assay type: biochemical; settings: for ABTS scavenging rate: 0.5mM series, replicate wells; for IC50: mean ± SD, n = 3
How it was run: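 ABTS·+ working solution in 0.2 M phosphate buffer, pH 7.4, was adjusted to A729 0.8 ± 0.05, and 100 μl was mixed with 200 μl sample; absorbance was read at 729 nm after 10 min, in triplicate. Inhibition was taken relative to a phosphate-buffer control, and IC50 was obtained graphically from dose-inhibition curves.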

[5] = FRAP total antioxidant capacity; assay type: biochemical; settings: lower part of sheet (compound series);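 further: colourimetric FRAP kit assay read as absorbance in 96-well plates, values as mM FeSO4 via standard curve, EC1 being sample concentration matching 1.0 mmol/L FeSO4, Trolox positive control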
[6] = DPPH· scavenging; assay type: biochemical; settings: mean ± SD, n = 3;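 further: colourimetric DPPH radical scavenging in 96-well plates, absorbance read-out, percent inhibition relative to ethanol control absorbance, IC50 derived graphically from dose-inhibition curves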
[7] = mean ± SD, n = 3, read-out: BSA-glycation IC50

Molecule: O=c1c(O[C@@H]2O[C@H](CO)[C@@H](O)[C@H](O)[C@H]2O)c(-c2ccc(O)c(O)c2)oc2cc(O)cc(O)c12 [compound 25, Isoquercitrin]
- IC50 [1, 7]: 213 ± 10.4 µM
- online ABTS radical scavenging (size of negative peaks at 734 nm) [2]: strongest ABTS radical scavengers
- COX-2 inhibition (in words) [3]: great COX-2 inhibition
- COX-2 inhibition ([3]; 3.125 μM, single replicates, listed as T15, 3.125 µM): -5.79% and 0.13% and 6.24%
- COX-2 inhibition ([3]; 6.25 μM, single replicates, listed as T15, 6.25 µM): 11.89% and 39.51% and 35.72%
- inhibition at 12.5 µM ([3]; 12.5 μM, single replicates): 41.8%
- COX-2 inhibition ([3]; 12.5 μM, single replicates, listed as T15, 12.5 µM): 53.29% and 49.38%
- inhibition at 25 µM ([3]; 25 μM, single replicates): 67.1%
- COX-2 inhibition ([3]; 25 μM, single replicates, listed as T15, 25 µM): 72.74% and 74.72%
- inhibition at 50 µM ([3]; 50 μM, single replicates): 78.9%
- COX-2 inhibition ([3]; 50 μM, single replicates, listed as T15, 50 µM): 78.06% and 79.70%
- inhibition at 100 µM ([3]; 100 μM, single replicates): 77.2%
- COX-2 inhibition ([3]; 100 μM, single replicates, listed as T15, 100 µM): 81.94% and 80.44%
- inhibition at 200 µM ([3]; 200 μM, single replicates): 79.2%
- COX-2 inhibition ([3]; 200 μM, single replicates, listed as T15, 200 µM): 82.29% and 79.96%
- ABTS scavenging rate ([4]; concentration 7.8125 (unit not given), listed as T15): 37.41% and 37.49% and 37.14%
- ABTS scavenging rate ([4]; concentration 15.625 (unit not given), listed as T15): 63.25% and 62.99% and 62.91%
- ABTS scavenging rate ([4]; concentration 31.25 (unit not given), listed as T15): 95.51% and 95.22% and 96.00%
- ABTS scavenging rate ([4]; concentration 62.5 (unit not given), listed as T15): 99.23% and 99.50% and 99.53%
- ABTS scavenging rate ([4]; concentration 125 (unit not given), listed as T15): 99.63% and 99.58% and 99.53%
- ABTS scavenging rate ([4]; concentration 250 (unit not given), listed as T15): 99.04% and 98.96% and 98.89%
- ABTS scavenging rate ([4]; concentration 500 (unit not given), listed as T15): 99.05% (2×) and 99.02%
- IC50 [4]: 10.67 ± 0.03 µM
- FRAP EC1 [5]: 520.2 ± 17.9 µM

Molecule: Neoschaftoside [compound 21]
- inhibition of fluorescent AGEs formation (BSA-抗糖化), single replicate ([1]; 15.625 µM): 0.054% and 0.23% and 1.18%
- inhibition of fluorescent AGEs formation (BSA-抗糖化), 平均 (mean) ([1]; 15.625 µM): 0.49%
- inhibition of fluorescent AGEs formation (BSA-抗糖化), single replicate ([1]; 31.25 µM): 5.09% and 4.69% and 3.66%
- inhibition of fluorescent AGEs formation (BSA-抗糖化), 平均 (mean) ([1]; 31.25 µM): 4.48%
- inhibition of fluorescent AGEs formation (BSA-抗糖化), single replicate ([1]; 62.5 µM): 7.25% and 9.67% and 10.17%
- inhibition of fluorescent AGEs formation (BSA-抗糖化), 平均 (mean) ([1]; 62.5 µM): 9.03%
- inhibition of fluorescent AGEs formation (BSA-抗糖化), single replicate ([1]; 125 µM): 20.04% and 20.34% and 19.73%
- inhibition of fluorescent AGEs formation (BSA-抗糖化), 平均 (mean) ([1]; 125 µM): 20.04%
- inhibition of fluorescent AGEs formation (BSA-抗糖化), single replicate ([1]; 250 µM): 36.81% and 35.45% and 36.08%
- inhibition of fluorescent AGEs formation (BSA-抗糖化), 平均 (mean) ([1]; 250 µM): 36.11%
- inhibition of fluorescent AGEs formation (BSA-抗糖化), single replicate ([1]; 500 µM): 54.95% and 55.05% and 56.69%
- inhibition of fluorescent AGEs formation (BSA-抗糖化), 平均 (mean) ([1]; 500 µM): 55.56%
- inhibition of fluorescent AGEs formation (BSA-抗糖化), single replicate ([1]; 1000 µM): 71.70% (2×) and 72.55%
- inhibition of fluorescent AGEs formation (BSA-抗糖化), 平均 (mean) ([1]; 1000 µM): 71.98%
- inhibition of fluorescent AGEs formation (BSA-抗糖化), single replicate ([1]; 2000 µM): 83.42% and 82.90% and 83.96%
- inhibition of fluorescent AGEs formation (BSA-抗糖化), 平均 (mean) ([1]; 2000 µM): 83.43%
- inhibition of fluorescent AGEs formation (BSA-抗糖化), single replicate ([1]; 4000 µM (series head 'T9 4000µM', 2-fold dilutions)): 91.13% and 89.60% and 90.19%
- inhibition of fluorescent AGEs formation (BSA-抗糖化), 平均 (mean) ([1]; 4000 µM): 90.31%
- IC50 ([1]; BSA anti-glycation, IC50 of each of 3 replicates, read-out: IC50, single replicate curve): 432 µM and 437 µM and 421 µM
- IC50 [1, 7]: 430 ± 8 µM
- COX-2 inhibition (in words) [3]: no inhibitory effects
- COX-2 inhibition ([3]; 31.25 μM, single replicates, listed as T21, 31.25 µM): -6.16% and -4.80% and 6.61%
- COX-2 inhibition ([3]; 62.5 μM, single replicates, listed as T21, 62.5 µM): 6.28% and 7.65% and 11.30%
- COX-2 inhibition ([3]; 125 μM, single replicates, listed as T21, 125 µM): 1.19% and -2.74% and 1.96%
- COX-2 inhibition ([3]; 250 μM, single replicates, listed as T21, 250 µM): 3.95% and 0.81% and 18.87%
- COX-2 inhibition ([3]; 500 μM, single replicates, listed as T21, 500 µM): -4.13% and -1.62% and 4.93%
- COX-2 inhibition ([3]; 1000 μM, single replicates, listed as T21, 1000 µM): -1.41% and 2.18% and 12.07%
- COX-2 inhibition ([3]; 2000 μM (2mM), single replicates, listed as T21): 51.51% and 49.86% and 47.92%
- IC50 [6]: > 5000 µM
- ABTS scavenging rate ([4]; concentration 15.625 (unit not given), listed as T21): 37.92% and 38.74% and 38.24%
- ABTS scavenging rate ([4]; concentration 31.25 (unit not given), listed as T21): 60.76% and 61.20% and 60.99%
- ABTS scavenging rate ([4]; concentration 62.5 (unit not given), listed as T21): 81.08% and 80.87% and 80.62%
- ABTS scavenging rate ([4]; concentration 125 (unit not given), listed as T21): 92.61% and 92.60% and 92.36%
- ABTS scavenging rate ([4]; concentration 250 (unit not given), listed as T21): 98.02% (2×) and 98.07%
- ABTS scavenging rate ([4]; concentration 500 (unit not given), listed as T21): 99.70% and 99.73% and 99.67%
- IC50 [4]: 21.4 ± 0.24 µM
- FRAP EC1 [5]: >5000 µM

Molecule: Vicenin-3 [compound 19]
- IC50 [1, 7]: 243 ± 12 µM
- COX-2 inhibition (in words) [3]: no inhibitory effects
- COX-2 inhibition ([3]; 31.25 μM, single replicates, listed as T8, 31.25 µM): -27.09% and -25.76% and -19.42%
- COX-2 inhibition ([3]; 62.5 μM, single replicates, listed as T8, 62.5 µM): -19.03% and -34.16% and -24.78%
- COX-2 inhibition ([3]; 125 μM, single replicates, listed as T8, 125 µM): -26.82% and -40.95% and -33.02%
- COX-2 inhibition ([3]; 250 μM, single replicates, listed as T8, 250 µM): -32.94% and -46.72% and -42.57%
- COX-2 inhibition ([3]; 500 μM, single replicates, listed as T8, 500 µM): -35.30% and -54.98% and -48.28%
- COX-2 inhibition ([3]; 1000 μM, single replicates, listed as T8, 1000 µM): -23.28% and -61.50% and -50.44%
- COX-2 inhibition ([3]; 2000 μM (2mM), single replicates, listed as T8): -50.77% and -55.05% and -54.78%
- IC50 [6]: > 5000 µM
- IC50 [4]: 74.8 ± 0.92 µM
- FRAP EC1 [5]: >5000 µM
